Where “and” joins values, the source holds several entries; their conditions need not be identical. Identical values can stand only once.
Assays:
SNB-19 = assay: NCI single dose (10 µM) SRB screen; format: cell-based, human; details: CNS cancer, 48 h
SW-620 = assay: NCI single dose (10 µM) SRB screen; format: cell-based, human; details: colon cancer, 48 h
NCI-H226 = assay: NCI single dose (10 µM) SRB screen; format: cell-based, human; details: non-small cell lung cancer, 48 h
SF-295 = assay: NCI single dose (10 µM) SRB screen; format: cell-based, human; details: CNS cancer, 48 h
NCI-H23 = assay: NCI single dose (10 µM) SRB screen; format: cell-based, human; details: non-small cell lung cancer, 48 h
MDA-MB-435 = assay: NCI single dose (10 µM) SRB screen; format: cell-based, human; details: melanoma, 48 h
Staphylococcus aureus = assay: Agar well diffusion method
Bacillus subtilis = assay: Agar well diffusion method
RPMI-8226 = assay: NCI single dose (10 µM) SRB screen; format: cell-based, human; details: leukaemia, 48 h
BT-549 = assay: NCI single dose (10 µM) SRB screen; format: cell-based, human; details: breast cancer, 48 h
OVCAR-8 = assay: NCI single dose (10 µM) SRB screen; format: cell-based, human; details: ovarian cancer, 48 h
HCC-2998 = assay: NCI single dose (10 µM) SRB screen; format: cell-based, human; details: colon cancer, 48 h
Aspergillus flavus = assay: Agar well diffusion method
SF-268 = assay: NCI single dose (10 µM) SRB screen; format: cell-based, human; details: CNS cancer, 48 h
OVCAR-3 = assay: NCI single dose (10 µM) SRB screen; format: cell-based, human; details: ovarian cancer, 48 h
CAKI-1 = assay: NCI single dose (10 µM) SRB screen; format: cell-based, human; details: renal cancer, 48 h
HOP-62 = assay: NCI single dose (10 µM) SRB screen; format: cell-based, human; details: non-small cell lung cancer, 48 h
SR = assay: NCI single dose (10 µM) SRB screen; format: cell-based, human; details: leukaemia, 48 h
HS578T = assay: NCI single dose (10 µM) SRB screen; format: cell-based, human; details: breast cancer, 48 h
UACC-62 = assay: NCI single dose (10 µM) SRB screen; format: cell-based, human; details: melanoma, 48 h
UO-31 = assay: NCI single dose (10 µM) SRB screen; format: cell-based, human; details: renal cancer, 48 h
TK-10 = assay: NCI single dose (10 µM) SRB screen; format: cell-based, human; details: renal cancer, 48 h
NCI-H522 = assay: NCI single dose (10 µM) SRB screen; format: cell-based, human; details: non-small cell lung cancer, 48 h
MALME-3M = assay: NCI single dose (10 µM) SRB screen; format: cell-based, human; details: melanoma, 48 h
HOP-92 = assay: NCI single dose (10 µM) SRB screen; format: cell-based, human; details: non-small cell lung cancer, 48 h
Escherichia coli = assay: Agar well diffusion method
IGROV1 = assay: NCI single dose (10 µM) SRB screen; format: cell-based, human; details: ovarian cancer, 48 h
COLO 205 = assay: NCI single dose (10 µM) SRB screen; format: cell-based, human; details: colon cancer, 48 h
PC-3 = assay: NCI single dose (10 µM) SRB screen; format: cell-based, human; details: prostate cancer, 48 h
NCI/ADR-RES = assay: NCI single dose (10 µM) SRB screen; format: cell-based, human; details: ovarian cancer, 48 h
M14 = assay: NCI single dose (10 µM) SRB screen; format: cell-based, human; details: melanoma, 48 h
NCI 60 cancer cell lines = assay: NCI single dose (10 µM) SRB screen, mean over panel; format: cell-based, human; details: mean over 60 cell lines, 48 h
NCI-H322M = assay: NCI single dose (10 µM) SRB screen; format: cell-based; details: non-small cell lung cancer, 48 h
U251 = assay: NCI single dose (10 µM) SRB screen; format: cell-based, human; details: CNS cancer, 48 h
LOX IMVI = assay: NCI single dose (10 µM) SRB screen; format: cell-based, human; details: melanoma, 48 h
Candida albicans = assay: Agar well diffusion method
SN12C = assay: NCI single dose (10 µM) SRB screen; format: cell-based, human; details: renal cancer, 48 h
MDA-MB-468 = assay: NCI single dose (10 µM) SRB screen; format: cell-based, human; details: breast cancer, 48 h
UACC-257 = assay: NCI single dose (10 µM) SRB screen; format: cell-based, human; details: melanoma, 48 h
A549/ATCC = assay: NCI single dose (10 µM) SRB screen; format: cell-based, human; details: non-small cell lung cancer, 48 h
SNB-75 = assay: NCI single dose (10 µM) SRB screen; format: cell-based, human; details: CNS cancer, 48 h
OVCAR-4 = assay: NCI single dose (10 µM) SRB screen; format: cell-based, human; details: ovarian cancer, 48 h
RXF 393 = assay: NCI single dose (10 µM) SRB screen; format: cell-based, human; details: renal cancer, 48 h
MDA-MB-231 = assay: NCI single dose (10 µM) SRB screen; format: cell-based, human; details: breast cancer, 48 h
SF-539 = assay: NCI single dose (10 µM) SRB screen; format: cell-based, human; details: CNS cancer, 48 h
786-0 = assay: NCI single dose (10 µM) SRB screen; format: cell-based, human; details: renal cancer, 48 h
SK-MEL-28 = assay: NCI single dose (10 µM) SRB screen; format: cell-based, human; details: melanoma, 48 h
MOLT-4 = assay: NCI single dose (10 µM) SRB screen; format: cell-based, human; details: leukaemia, 48 h
T-47D = assay: NCI single dose (10 µM) SRB screen; format: cell-based, human; details: breast cancer, 48 h
HCT-15 = assay: NCI single dose (10 µM) SRB screen; format: cell-based, human; details: colon cancer, 48 h
DU-145 = assay: NCI single dose (10 µM) SRB screen; format: cell-based, human; details: prostate cancer, 48 h

**Q.** `COCCOC(=O)C1=C(C)NC(C)=C(C(=O)OCCOC)C1c1cccc(C#N)c1` [Compound 1f, Di(2-methoxyethyl) 4-(3-cyanophenyl)-2,6-dimethyl-1,4-dihydropyridine-3,5-dicarboxylate] was tested. Which “GI% SNB-19” value (SNB-19) did it give?
**A.** – (Only GI% ≥ 10 are shown)

**Q.** What about the “GI% SW-620” value (SW-620) of the same compound?
**A.** – (Only GI% ≥ 10 are shown)

**Q.** What about the “GI% NCI-H226” value (NCI-H226) of the same compound?
**A.** – (Only GI% ≥ 10 are shown)

**Q.** What about the “GI% SF-295” value (SF-295) of the same compound?
**A.** – (Only GI% ≥ 10 are shown)

**Q.** And the “GI% NCI-H23” value (NCI-H23)?
**A.** – (Only GI% ≥ 10 are shown)

**Q.** And the “GI% MDA-MB-435” value (MDA-MB-435)?
**A.** – (Only GI% ≥ 10 are shown)

**Q.** What about the zone of inhibition at 1000 µg/mL (Staphylococcus aureus; Staphylococcus aureus, 24 h, read-out: Diameter of inhibition zone, S. aureus) of the same compound?
**A.** 19 mm

**Q.** What about the “% activity index, S. aureus” value (Staphylococcus aureus; relative to ciprofloxacin) of the same compound?
**A.** 79% and 79.2%

**Q.** And the zone of inhibition at 1000 µg/mL (Bacillus subtilis; Bacillus subtilis, 24 h, read-out: Diameter of inhibition zone, B. subtilis)?
**A.** 16 mm

**Q.** And the “% activity index, B. subtilis” value (Bacillus subtilis; relative to ciprofloxacin)?
**A.** 69.6%

**Q.** What about the “GI% RPMI-8226” value (RPMI-8226) of the same compound?
**A.** – (Only GI% ≥ 10 are shown)

**Q.** And the “GI% BT-549” value (BT-549)?
**A.** 12%

**Q.** What about the “GI% OVCAR-8” value (OVCAR-8) of the same compound?
**A.** – (Only GI% ≥ 10 are shown)

**Q.** And the “GI% HCC-2998” value (HCC-2998)?
**A.** – (Only GI% ≥ 10 are shown)

**Q.** What about the zone of inhibition at 1000 µg/mL (Aspergillus flavus; Aspergillus flavus, 24 h, read-out: Diameter of inhibition zone, A. flavus) of the same compound?
**A.** 19 mm

**Q.** And the “% activity index, A. flavus” value (Aspergillus flavus; relative to clotrimazole)?
**A.** 76%

**Q.** And the “GI% SF-268” value (SF-268)?
**A.** – (Only GI% ≥ 10 are shown)

**Q.** And the “GI% OVCAR-3” value (OVCAR-3)?
**A.** – (Only GI% ≥ 10 are shown)

**Q.** And the “GI% CAKI-1” value (CAKI-1)?
**A.** – (Only GI% ≥ 10 are shown)

**Q.** What about the “GI% HOP-62” value (HOP-62) of the same compound?
**A.** – (Only GI% ≥ 10 are shown)

**Q.** What about the “GI% SR” value (SR) of the same compound?
**A.** – (Only GI% ≥ 10 are shown)

**Q.** And the “GI% HS578T” value (HS578T)?
**A.** – (Only GI% ≥ 10 are shown)

**Q.** And the “GI% UACC-62” value (UACC-62)?
**A.** – (Only GI% ≥ 10 are shown)

**Q.** What about the “GI% UO-31” value (UO-31) of the same compound?
**A.** – (Only GI% ≥ 10 are shown)

**Q.** And the “GI% TK-10” value (TK-10)?
**A.** – (Only GI% ≥ 10 are shown)

**Q.** And the “GI% NCI-H522” value (NCI-H522)?
**A.** – (Only GI% ≥ 10 are shown)

**Q.** And the “GI% MALME-3M” value (MALME-3M)?
**A.** – (Only GI% ≥ 10 are shown)

**Q.** And the “GI% HOP-92” value (HOP-92)?
**A.** – (Only GI% ≥ 10 are shown)

**Q.** What about the zone of inhibition at 1000 µg/mL (Escherichia coli; Escherichia coli, 24 h, read-out: Diameter of inhibition zone, E. coli) of the same compound?
**A.** 13 mm

**Q.** What about the “% activity index, E. coli” value (Escherichia coli; relative to ciprofloxacin) of the same compound?
**A.** 50%

**Q.** And the “GI% IGROV1” value (IGROV1)?
**A.** – (Only GI% ≥ 10 are shown)

**Q.** And the “GI% COLO 205” value (COLO 205)?
**A.** – (Only GI% ≥ 10 are shown)

**Q.** And the “GI% PC-3” value (PC-3)?
**A.** – (Only GI% ≥ 10 are shown)

**Q.** And the “GI% NCI/ADR-RES” value (NCI/ADR-RES)?
**A.** – (Only GI% ≥ 10 are shown)

**Q.** What about the “GI% M14” value (M14) of the same compound?
**A.** – (Only GI% ≥ 10 are shown)

**Q.** What about the “Mean GI%” value (NCI 60 cancer cell lines) of the same compound?
**A.** −1%

**Q.** And the “GI% NCI-H322M” value (NCI-H322M)?
**A.** – (Only GI% ≥ 10 are shown)

**Q.** What about the “GI% U251” value (U251) of the same compound?
**A.** – (Only GI% ≥ 10 are shown)

**Q.** And the “GI% LOX IMVI” value (LOX IMVI)?
**A.** – (Only GI% ≥ 10 are shown)

**Q.** What about the zone of inhibition at 1000 µg/mL (Candida albicans; Candida albicans, 24 h, read-out: Diameter of inhibition zone, C. albicans) of the same compound?
**A.** 18 mm

**Q.** And the “% activity index, C. albicans” value (Candida albicans; relative to clotrimazole)?
**A.** 66.7%

**Q.** And the “GI% SN12C” value (SN12C)?
**A.** – (Only GI% ≥ 10 are shown)

**Q.** What about the “GI% MDA-MB-468” value (MDA-MB-468) of the same compound?
**A.** 13%

**Q.** And the “GI% UACC-257” value (UACC-257)?
**A.** – (Only GI% ≥ 10 are shown)

**Q.** And the “GI% A549/ATCC” value (A549/ATCC)?
**A.** – (Only GI% ≥ 10 are shown)

**Q.** What about the “GI% SNB-75” value (SNB-75) of the same compound?
**A.** 14%

**Q.** And the “GI% OVCAR-4” value (OVCAR-4)?
**A.** – (Only GI% ≥ 10 are shown)

**Q.** And the “GI% RXF 393” value (RXF 393)?
**A.** – (Only GI% ≥ 10 are shown)

**Q.** What about the “GI% MDA-MB-231” value (MDA-MB-231) of the same compound?
**A.** – (Only GI% ≥ 10 are shown)

**Q.** And the “GI% SF-539” value (SF-539)?
**A.** – (Only GI% ≥ 10 are shown)

**Q.** What about the “GI% 786-0” value (786-0) of the same compound?
**A.** – (Only GI% ≥ 10 are shown)

**Q.** What about the “GI% SK-MEL-28” value (SK-MEL-28) of the same compound?
**A.** – (Only GI% ≥ 10 are shown)

**Q.** What about the “GI% MOLT-4” value (MOLT-4) of the same compound?
**A.** – (Only GI% ≥ 10 are shown)

**Q.** What about the “GI% T-47D” value (T-47D) of the same compound?
**A.** – (Only GI% ≥ 10 are shown)

**Q.** And the “GI% HCT-15” value (HCT-15)?
**A.** – (Only GI% ≥ 10 are shown)

**Q.** And the “GI% DU-145” value (DU-145)?
**A.** – (Only GI% ≥ 10 are shown)

Source: paper PMC9481151, “Discovery of new symmetrical and asymmetrical nitrile-containing 1,4-dihydropyridine derivatives as dual kinases and P-glycoprotein inhibitors: synthesis, in vitro assays, and in silico studies” (Journal of Enzyme Inhibition and Medicinal Chemistry, 2022)
